Structures are written as SMILES. A value given as a limit tells only on which side of the number the result lay.

This assay concerns the target T1, Steroid hormone receptor ERR1 (Homo sapiens, UniProt P11474).
T1 sequence (P11474 whole entry): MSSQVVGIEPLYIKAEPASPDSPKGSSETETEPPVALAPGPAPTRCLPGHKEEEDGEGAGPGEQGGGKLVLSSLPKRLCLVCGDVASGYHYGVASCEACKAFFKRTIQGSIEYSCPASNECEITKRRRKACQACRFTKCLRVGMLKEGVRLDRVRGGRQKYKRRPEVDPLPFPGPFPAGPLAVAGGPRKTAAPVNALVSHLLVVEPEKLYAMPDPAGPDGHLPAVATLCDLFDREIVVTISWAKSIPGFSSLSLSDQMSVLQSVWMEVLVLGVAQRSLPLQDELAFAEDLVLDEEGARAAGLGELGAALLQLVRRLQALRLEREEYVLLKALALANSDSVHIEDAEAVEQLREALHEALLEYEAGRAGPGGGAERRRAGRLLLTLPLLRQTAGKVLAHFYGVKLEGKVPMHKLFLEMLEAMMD
Briefly: Inverse agonist activity at GAL4-fused human ERRalpha expressed in HEK293 cells assessed as inhibition of transcriptional activity after 20 hrs by luciferase reporter gene assay. Type of assay: cell-based. On the technique in general: Reporter assays use an easily measured gene product as a stand-in for the process of interest.
Usually IC50 stands for the concentration needed to halve the response being measured. Take `CC(=O)c1ccc(N2CCN(C(=O)c3cc4c(C)nn(Cc5cccc(OCCCCCNC(=O)CCC6=[N+]7C(=Cc8c(C)cc(C)n8[B-]7(F)F)C=C6)c5)c4s3)C[C@H]2C)nc1`: the IC50 was determined as 80 nM. On to `CC(=O)c1ccc(N2CCN(C(=O)c3cc4c(C)nn(Cc5cccc(OCC6CCN(C(=O)CCC7=[N+]8C(=Cc9c(C)cc(C)n9[B-]8(F)F)C=C7)CC6)c5)c4s3)C[C@H]2C)nc1`, for which the IC50 stood at 210 nM.

In the case of `CC(=O)c1ccc(N2CCN(C(=O)c3cc4c(C)nn(Cc5cccc(OCCOCCOCCOCCNC(=O)CCC6=[N+]7C(=Cc8c(C)cc(C)n8[B-]7(F)F)C=C6)c5)c4s3)C[C@H]2C)nc1`, the IC50 is 570 nM. Turning to `CC(=O)c1ccc(N2CCN(C(=O)c3cc4c(C)nn(Cc5cccc(OCCOCCOCCNC(=O)CCC6=[N+]7C(=Cc8c(C)cc(C)n8[B-]7(F)F)C=C6)c5)c4s3)C[C@H]2C)nc1`, the IC50 was found to be 390 nM. `CC(=O)c1ccc(N2CCN(C(=O)c3cc4c(C)nn(Cc5cccc(OCCOCCNC(=O)CCC6=[N+]7C(=Cc8c(C)cc(C)n8[B-]7(F)F)C=C6)c5)c4s3)C[C@H]2C)nc1`: the IC50 was determined as 280 nM. Consider `CC(=O)c1ccc(N2CCN(C(=O)c3cc4c(C)nn(Cc5cccc(OCCCNC(=O)CCC6=[N+]7C(=Cc8c(C)cc(C)n8[B-]7(F)F)C=C6)c5)c4s3)C[C@H]2C)nc1`, for which the IC50 is 490 nM.

For the compound `CC(=O)c1ccc(N2CCN(C(=O)c3cc4c(C)nn(Cc5cccc(OCCCCNC(=O)CCC6=[N+]7C(=Cc8c(C)cc(C)n8[B-]7(F)F)C=C6)c5)c4s3)C[C@H]2C)nc1`, the IC50 came to 170 nM. With `COCCOc1cccc(Cn2nc(C)c3cc(C(=O)N4CCN(c5ccc(C(C)=O)cn5)[C@H](C)C4)sc32)c1`, the IC50 is 22 nM.

With `CC(=O)c1ccc(N2CCN(C(=O)c3cc4c(C)nn(Cc5cccc(OCCNC(=O)CCC6=[N+]7C(=Cc8c(C)cc(C)n8[B-]7(F)F)C=C6)c5)c4s3)C[C@H]2C)nc1`, the IC50 is 650 nM. In the case of `CC(=O)c1ccc(N2CCN(C(=O)c3cc4c(C)nn(Cc5cccc(OCC6CCN(C(=O)CCC7=[N+]8C(=Cc9c(C)cc(C)n9[B-]8(F)F)C=C7)C6)c5)c4s3)C[C@H]2C)nc1` (some centres not stated) it was 770 nM; in that of `CC(=O)c1ccc(N2CCN(C(=O)c3cc4c(C)nn(Cc5cccc(OCC6CN(C(=O)CCC7=[N+]8C(=Cc9c(C)cc(C)n9[B-]8(F)F)C=C7)CCO6)c5)c4s3)C[C@H]2C)nc1` (some centres not stated), above 1000 nM; in that of `CC(=O)c1ccc(N2CCN(C(=O)c3cc4c(C)nn(Cc5cccc(OCc6ccc(CNC(=O)CCC7=[N+]8C(=Cc9c(C)cc(C)n9[B-]8(F)F)C=C7)cc6)c5)c4s3)C[C@H]2C)nc1`, 170 nM.

For the origin of these results see ChEMBL document CHEMBL3994653, “Parallel fluorescent probe synthesis based on the large-scale preparation of BODIPY FL propionic acid” (Bioorg Med Chem Lett, 2017).
